According to patent US11505592B2, “Diagnosis and therapy of multiple sclerosis” (PRINDEX S.R.L., priority 2015, dated 2022):

Experiments:
MS sera = assay: PEPSCAN-based ELISA, binding of MS sera to library peptides; set-up: species or system human; details: ELISA binding value, MS sera n = 9
From the text: (§1) The linear and CLIPS peptides are synthesized based on the amino acid sequence of the target protein using standard Fmoc-chemistry and deprotected using […] with scavengers. The constrained peptides are synthesized on chemical scaffolds in order to reconstruct conformational epitopes, using Chemically Linked Peptides on Scaffolds (CLIPS) technology (Timmerman et al. (2007). For example, the single looped peptides are synthesized containing a dicysteine, which was cyclized by treating with alpha, alpha′-dibromoxylene and the size of the loop is varied by introducing cysteine residues at variable spacing. If other cysteines besides the newly introduced cysteines are present, they are replaced by alanine. The side-chains of the multiple cysteines in the peptides are coupled to CLIPS templates by reacting onto credit-card format polypropylene PEPSCAN cards (455 peptide formats/card) with a 0.5 mM solution of CLIPS template such as 1,3-bis (bromomethyl) benzene in ammonium bicarbonate (20 mM, pH 7.9)/acetonitrile (1:1(v/v)). The cards are gently shaken in the solution for 30 to 60 minutes while completely covered in solution. Finally, the cards are washed extensively with excess of H2O and sonicated in distrupt-buffer containing 1 percent SDS/0.1 percent beta-mercaptoethanol in PBS (pH 7.2) at 70° C. for 30 minutes, followed by sonication in H2O for another 45 minutes.
(§2) The binding of antibody to each peptide is tested in a PEPSCAN-based ELISA. The 455-well credit card format polypropylene cards containing the covalently linked peptides are incubated with primary antibody solution for example consisting of 1/1000 diluted serum in blocking solution, for example 4% horse serum, 5% ovalbumin (w/v) in PBS/1% Tween. After washing, the peptides are incubated with a 1/1000 dilution of antibody peroxidase conjugate for one hour at 25° C. After washing, the peroxidase substrate 2,2′-azino-di-3-ethylbenzthiazoline sulfonate (ABTS) and 2 microlitres of 3 percent H2O2 are added. After one hour, the color development are measured. The color development are quantified with a charge coupled device (CCD)-camera and an image processing system (Slootstra et al., 1996).
(§3) The raw data are optical values obtained by a CCD-camera calibrated to export absorption values compatible with a standard 96-well plate ELISA-reader. First the CCD-camera makes a picture of the card before peroxidase coloring and then again a picture after the peroxidase coloring. These two pictures are substracted from each other yielding a binding value for each peptide.
(§4) All peptides have been synthesized in a peptide array format and the binding of 20 different sera to all peptide libraries were measured in an ELISA based set up following the procedure described in detail in the method section “Peptide synthesis and screening assays”. In particular 2 sets of experiments were performed on the 2 libraries by using 2 different dilutions of the human patients sera. In the first set of experiment the 20 sera were used at 1:2500 dilutions, while in the second experiment the dilution of the sera was 1:1000. The binding of the different sera to all peptides was quantified and analyzed in detail (Tables 1 and 2, FIGS. 15A, B, C, D and […]

CTRL sera = assay: PEPSCAN-based ELISA, binding of control (CTRL) sera to library peptides; set-up: species or system human; details: ELISA binding value, CTRLs n = 10
From the text: as §1, §2, §3, §4

| Sequence | MEAN MS (MS sera; NOX2 library) | MEAN CTRL (CTRL sera; NOX2 library) | MEAN MS (MS sera; 5HT2A receptor library) | MEAN CTRL (CTRL sera; 5HT2A receptor library) |
| --- | --- | --- | --- | --- |
| QKISEWGKIKAAPIP [SEQ ID NO: 88] | 701.889 | 364.3 | – | – |
| CPYSVALSELGDRQNECITVSEQKISEWGKIKC [SEQ ID NO: 124] | 824.056 | 469.75 | – | – |
| TVDSENRTNLAAEGC [Peptide 23] | – | – | 587.33 | 348.10 |
| CSLSSTTNSLMQLNCMDILSEENTSLSSC [Peptide 18] | – | – | 323.72 | 188.90 |
| CSYLNFARKRIKNPEGCITVSEQKISEWGKIKC [SEQ ID NO: 122] | 796.222 | 457.4 | – | – |
| QNESYLNFARAAIKN [SEQ ID NO: 113] | 421.722 | 244 | – | – |
| CTRLYSNDFNSGEACKESSNEDVIGALLC [Peptide 42] | – | – | 561.03 | 333.60 |
| CESLAVHNITVSEQKICGDRQNESYLNFARKRC [SEQ ID NO: 136] | 730.278 | 409.15 | – | – |
| CVRGQTAESLAVHNITCITVSEQKISEWGKIKC [SEQ ID NO: 134] | 758.278 | 440.5 | – | – |
| CQNESYLNFARKRIKNCVSEQKISEWGKIKESC [SEQ ID NO: 111] | 747.139 | 419.075 | – | – |
| CVNARVNNSDPYSVALCTVSEQKISEWGKIKEC [SEQ ID NO: 154] | 799.667 | 455.6 | – | – |
| CDSKVFKEGSSLLACMDILSEENTSLSSC [Peptide 28] | – | – | 429.00 | 236.60 |
| CSELGDRQNESYLNFACQNESYLNFARKRIKNC [SEQ ID NO: 80] | 773.167 | 398.9 | – | – |
| CHGAERIVRGQTAESLCQKISEWGKIKESPIPC [SEQ ID NO: 101] | 734.917 | 407.625 | – | – |
| CFNVEWSVNARVNNSDCVSEQKISEWGKIKESC [SEQ ID NO: 141] | 784.944 | 447.325 | – | – |
| CEWSVNARVNNSDPYSCPYSVALSELGDRQNEC [SEQ ID NO: 72] | 428.167 | 225.5 | – | – |
| CNITVSEQKISAAGKIC [SEQ ID NO: 105] | 828.167 | 460.55 | – | – |
| CNSLMQLNDTRLYCSGEANTSDAFNWTC [Peptide 19] | – | – | 564.11 | 299.55 |
| QKISEWGKI [SEQ ID NO: 146] | 508.333 | 298.2 | – | – |
| CSDAFNWTVDSENRCMDILSEENTSLSSC [Peptide 22] | – | – | 394.00 | 207.20 |
| WCVNARVNNSDPYSV [SEQ ID NO: 121] | 283.889 | 163.8 | – | – |
| CNSLMQLNDDTRLYCYSNDFNSGEANTSC [Peptide 34] | – | – | 459.72 | 268.10 |
| CGDRQNESYLNFARKRCSYLNFARKRIKNPEGC [SEQ ID NO: 131] | 730.222 | 401.95 | – | – |
| CEWSVNARVNNSDPYSCVSEQKISEWGKIKESC [SEQ ID NO: 155] | 760.083 | 433.775 | – | – |
| RQNESYLNFARKRIK [SEQ ID NO: 76] | 458.833 | 241.2 | – | – |
| YRWPLPSKL [Peptide 5] | – | – | 566.00 | 285.70 |
| CVRGQTAESLAVHNITCSLAVHNITVSEQKISC [SEQ ID NO: 156] | 546.444 | 304.75 | – | – |

| Sequence | MEAN MS (MS sera; NOX2 library) | MEAN CTRL (CTRL sera; NOX2 library) | MEAN MS (MS sera; 5HT2A receptor library) | MEAN CTRL (CTRL sera; 5HT2A receptor library) |
| --- | --- | --- | --- | --- |
| SYLNFARKRIAAPEG [SEQ ID NO: 71] | 472.000 | 259.75 | – | – |
| CESLAVHNITVSEQKICQNESYLNFARKRIKNC [SEQ ID NO: 74] | 689.556 | 354.9 | – | – |
| CNESYLNFARKAAKNPC [SEQ ID NO: 86] | 702.222 | 411.15 | – | – |
| DPYSVALSELAARQN [SEQ ID NO: 78] | 565.389 | 325.05 | – | – |
| CNSLMQLNDDTRLYCMDILSEENTSLSSC [Peptide 1] | – | – | 445.78 | 252.10 |
| CMQLNDDTRLYSNDCSGEANTSDAFNWTC [Peptide 15] | – | – | 497.78 | 257.25 |
| CNITVSEQKISEWGKICGDRQNESYLNFARKRC [SEQ ID NO: 144] | 816.722 | 446.7 | – | – |
| CGDRQNESYLNFARKRCQNESYLNFARKRIKNC [SEQ ID NO: 70] | 831.278 | 412.7 | – | – |
| CMDILSEENTSLSSCMQLNDDTRLYSNDC [Peptide 21] | – | – | 392.28 | 223.85 |
| CSYLNFARKRIKNPEGCNFARKRIKNPEGGLYC [SEQ ID NO: 138] | 659.944 | 371.8 | – | – |
| CAVHNITVSEQKISEWCVSEQKISEWGKIKESC [SEQ ID NO: 123] | 697.000 | 392.5 | – | – |
| LTILYGYRWPAASKL [Peptide 3] | – | – | 653.28 | 322.35 |
| CHGAERIVRGQTAESLCNFARKRIKNPEGGLYC [SEQ ID NO: 89] | 733.889 | 404.6 | – | – |
| CNSDPYSVALSELGDRCITVSEQKISEWGKIKC [SEQ ID NO: 143] | 781.611 | 456.45 | – | – |
| CVSEQKISEWGKIKESCGDRQNESYLNFARKRC [SEQ ID NO: 112] | 846.778 | 462.45 | – | – |
| CVSEQKISEWGKIKESCEQKISEWGKIKESPIC [SEQ ID NO: 84] | 811.056 | 443.5 | – | – |
| GDRQNESYLNFARKR [SEQ ID NO: 120] | 325.333 | 163.95 | – | – |
| FARKRIKNP [SEQ ID NO: 67] | 666.111 | 337.4 | – | – |
| LNFARKRIK [SEQ ID NO: 59] | 557.056 | 294.6 | – | – |
| CSEQKISEWGKIKESPC [SEQ ID NO: 114] | 501.167 | 271.75 | – | – |
| TVCEQKISEWGKIKE [SEQ ID NO: 94] | 514.944 | 289.4 | – | – |
| CVSEQKISEWGKIKESCVSEQKISEWGKIKESC [SEQ ID NO: 115] | 756.639 | 432.35 | – | – |
| CLTILYGYRWPLPSCKESSNEDVIGALLC [Peptide 12] | – | – | 629.14 | 350.93 |
| CLSPSSLSLLHLQECTVDSENRTNLSSEC [Peptide 27] | – | – | 427.89 | 263.00 |
| LTILYGYRWPLPSKL [Peptide 8] | – | – | 647.17 | 340.05 |
| DPYSVALSELGDRQN [SEQ ID NO: 132] | 300.556 | 177.25 | – | – |
